PubChem BioAssay (NCI)
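Growth conditions: 96-well plates. Treatment: test compound, 48 hours, 5 concentrations. Analysis: linear interpolation between bracketing concentrations; unreached endpoints set to highest concentration. At the GI50, growth is halved. The concentration for full growth arrest is given as TGI.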

How the values were obtained:
Assay in all cases: growth of human tumour cells (NCI), 48 h
DU-145 prostate = system: DU-145 prostate
MDA-MB-435 = system: MDA-MB-435
IGROV1 ovarian = system: IGROV1 ovarian
SK-OV-3 ovarian = system: SK-OV-3 ovarian
U251 CNS = system: U251 CNS
SF-295 CNS = system: SF-295 CNS
K-562 leukemia = system: K-562 leukemia
NCI/ADR-RES ovarian = system: NCI/ADR-RES ovarian
MCF7 breast = system: MCF7 breast
T-47D breast = system: T-47D breast

| Structure (SMILES) | TGI (DU-145 prostate) | TGI (MDA-MB-435) | TGI (IGROV1 ovarian) | TGI (SK-OV-3 ovarian) | TGI (U251 CNS) | TGI (SF-295 CNS) | TGI (K-562 leukemia) | TGI (NCI/ADR-RES ovarian) | TGI (MCF7 breast) | TGI (T-47D breast) | GI50 (DU-145 prostate) | GI50 (MDA-MB-435) | GI50 (IGROV1 ovarian) | GI50 (SK-OV-3 ovarian) | GI50 (U251 CNS) | GI50 (SF-295 CNS) | GI50 (NCI/ADR-RES ovarian) | GI50 (MCF7 breast) |
| --- | --- | --- | --- | --- | --- | --- | --- | --- | --- | --- | --- | --- | --- | --- | --- | --- | --- | --- |
| CO[C@H]1C[C@H](n2cc(C)c(=O)[nH]c2=O)O[C@@H]1CO | > 100 µM | > 100 µM | > 100 µM | > 100 µM | > 100 µM | > 100 µM | > 100 µM | > 100 µM | > 100 µM | – | – | – | – | – | – | – | – | – |
| COc1cc(/C=C2\N=C(C)N(n3c(-c4ccccc4)nc4ccccc4c3=O)C2=O)cc(OC)c1OC | > 100 µM | > 100 µM | > 100 µM | > 100 µM | – | > 100 µM | > 100 µM | – | > 100 µM | > 100 µM | – | – | – | – | – | – | – | – |
| O=S(=O)(O)c1cc(Nc2ccnc3ccccc23)c2c(S(=O)(=O)O)cc(S(=O)(=O)O)cc2c1 | > 100 µM | > 100 µM | > 100 µM | > 100 µM | > 100 µM | – | – | > 100 µM | > 100 µM | > 100 µM | – | – | – | – | – | – | – | – |
| COc1ccc(/C(Cl)=C(\C=O)c2ccccc2)cc1OC | – | – | > 100 µM | > 100 µM | > 100 µM | 55.1 µM | > 100 µM | – | – | – | – | – | – | – | – | – | – | – |
| COc1ccc2c(c1)CC1(O)COc3cc(OC)ccc3C1O2 (stereo not given) | > 100 µM | > 100 µM | > 100 µM | > 100 µM | > 100 µM | > 100 µM | – | > 100 µM | > 100 µM | > 100 µM | – | – | – | – | – | – | – | – |
| c1ccc(CCN2CCN=C2Cc2ccccc2)cc1 | > 100 µM | – | > 100 µM | > 100 µM | > 100 µM | > 100 µM | > 100 µM | > 100 µM | > 100 µM | > 100 µM | – | – | – | – | – | – | – | – |
| CN(C)CCCNc1cnc2cc3ccccc3cc2n1 | > 100 µM | 79.2 µM | 31.8 µM | > 100 µM | > 100 µM | 52.4 µM | 70.2 µM | – | 44.8 µM | – | – | – | – | – | – | – | – | – |
| C=CC[N+](CCO)(CCO)CCCCCCCCCCCCCCCCCC | – | – | 3.78 µM | 27.9 µM | 4.48 µM | 21.5 µM | 18.2 µM | 55.8 µM | > 44.8 µM | – | – | – | – | – | – | – | – | – |
| COc1ccc(NCc2cnc3nc(N)nc(N)c3c2C)cc1 | – | > 100 µM | > 100 µM | > 100 µM | > 100 µM | – | > 100 µM | > 100 µM | > 100 µM | > 92.8 µM | – | – | – | – | – | – | – | – |
| Cn1cc(-c2nc(-c3c[nH]c4ccncc34)cs2)c2cc(F)ccc21 | 3.14 µM | 3.06 µM | 3.41 µM | 3.37 µM | 3.29 µM | 3.02 µM | – | 4.19 µM | 2.88 µM | – | 1.71 µM | 1.64 µM | 1.86 µM | 1.92 µM | 1.8 µM | 1.64 µM | 1.93 µM | 1.23 µM |
| O=C(O)CN(CC(=O)O)Cc1ccn(-c2cccc(-n3ccc(CN(CC(=O)O)CC(=O)O)n3)n2)n1 | > 100 µM | > 100 µM | > 100 µM | > 100 µM | > 100 µM | > 100 µM | – | > 100 µM | > 100 µM | > 100 µM | – | – | – | – | – | – | – | – |
| O=c1oc2c/c(=C\c3ccccc3)c(=O)c3cccc1c3-2 | > 100 µM | 51.7 µM | 56.7 µM | > 100 µM | 37.2 µM | > 100 µM | – | > 100 µM | – | 55.5 µM | – | – | – | – | – | – | – | – |
| CCCCCCCC(=O)OCC(C[As](=O)(O)O)OC(=O)CCCCCCC (stereo not given) | – | – | 26.9 µM | 29.1 µM | 28.2 µM | 30.6 µM | 81.9 µM | – | – | – | – | – | – | – | – | – | – | – |
| CNC(=O)c1ccccc1[S+]1c2cccc3cccc(c23)C(=O)N1C (stereo not given) | > 100 µM | > 100 µM | > 100 µM | – | > 100 µM | > 100 µM | > 100 µM | > 100 µM | > 100 µM | > 100 µM | – | – | – | – | – | – | – | – |
| C[C@H](N)C(=O)N[C@@H]1[C@H]2C(=C(O)C[C@@H](O)[C@@H]2O)C(=O)O[C@@H]1C | – | – | > 100 µM | > 100 µM | > 100 µM | > 100 µM | > 100 µM | > 100 µM | > 100 µM | – | – | – | – | – | – | – | – | – |
| Cc1c(O)c(=O)ccn1CCc1c[nH]c2ccccc12 | 35.4 µM | > 100 µM | – | > 100 µM | > 100 µM | > 100 µM | 66.7 µM | 35.6 µM | 33.2 µM | 78 µM | – | – | – | – | – | – | – | – |
| CC(C)=CCCC1(Sc2ccccc2)C(=O)OCC1C=C(C)C (stereo not given) | – | > 100 µM | 60.4 µM | > 100 µM | > 100 µM | > 100 µM | – | > 100 µM | > 100 µM | > 100 µM | – | – | – | – | – | – | – | – |
| COC(=O)c1c(O)ccc2c1c1c(n2Cc2ccccc2OC)C(=O)c2ccccc2C1 | > 100 µM | > 100 µM | > 100 µM | > 100 µM | > 100 µM | – | > 100 µM | > 100 µM | > 100 µM | > 100 µM | – | – | – | – | – | – | – | – |
| Cc1cc(C)c2c(=N)c3ccccc3n(CCCCCCn3c4ccccc4c(=N)c4c(C)cc(C)nc43)c2n1 | 3.13 µM | 3.3 µM | 2.64 µM | 2.98 µM | 0.387 µM | 2.85 µM | > 100 µM | – | – | 3.65 µM | – | – | – | – | – | – | – | – |
| CC1C2CC(CC2N)C1(C)C (stereo not given) | > 100 µM | > 100 µM | > 100 µM | > 100 µM | > 100 µM | > 100 µM | > 100 µM | – | > 100 µM | > 100 µM | – | – | – | – | – | – | – | – |
| COc1ccc(/C=N\NC(=O)Nc2cccc3ccccc23)cc1 | > 100 µM | > 100 µM | > 100 µM | – | 36.5 µM | – | – | > 100 µM | > 100 µM | 38.2 µM | – | – | – | – | – | – | – | – |
| CN(C)CCNC(=O)c1cccc2[nH]c(-c3ccncc3)nc12 | > 100 µM | 3.63 µM | > 56.4 µM | – | 9.82 µM | 7.97 µM | > 100 µM | > 100 µM | > 30.8 µM | > 86.1 µM | – | – | – | – | – | – | – | – |
| COc1ccc(/C=N/n2cnc3c(c2=O)S/C(=C2/SC(=S)N(c4ccc(C)cc4)C2=O)N3c2ccccc2)cc1 | – | – | > 100 µM | > 100 µM | – | 38.1 µM | > 10 µM | – | – | – | – | – | – | – | – | – | – | – |
| N/C(=N\N=C\c1cc2c(cc1Cl)OCO2)NO | – | – | > 100 µM | > 92.5 µM | > 100 µM | 74.8 µM | > 100 µM | 57.2 µM | > 100 µM | – | – | – | – | – | – | – | – | – |
